The values below come from ChEMBL document CHEMBL5576100, “Genome-Driven Discovery of Antiviral Atralabdans A-C from the Soil-Dwelling Streptomyces atratus” (J Nat Prod, 2024).

As usually defined, the EC50 is the concentration that produces a half-maximal response. For orientation: CC50 means the concentration at which the toxic effect on the cells reaches its halfway point.

Activity calls are given as the source filed them. No cut-off for these calls is given here.

The subject of data set [1] is Staphylococcus aureus. The data set can be described thus: Antimicrobial activity against Staphylococcus aureus assessed as zone of inhibition at 80 ug measured after 1 to 2 days by paper disk diffusion method. The data set is classed as functional. Particulars: time 1-2 day, read-out: IZ. In general terms: Agar diffusion results depend on both activity and mobility in agar.

Data set [2] concerns Escherichia coli. The data set can be described thus: Antimicrobial activity against Escherichia coli DH10B assessed as zone of inhibition at 80 ug measured after 1 to 2 days by paper disk diffusion method. The data set is classed as functional, organism-based. Particulars: dose 80.0 µg, time 1-2 day.
The subject of data set [3] is Pseudomonas sp. Nature of the data set: Antimicrobial activity against Pseudomonas sp. assessed as zone of inhibition at 80 ug measured after 1 to 2 days by paper disk diffusion method. The data set is classed as functional, organism-based. As to conditions: dose 80.0 µg, time 1-2 day.
In data set [4] the test system is Micrococcus luteus. Nature of the data set: Antimicrobial activity against Micrococcus luteus assessed as zone of inhibition at 80 ug measured after 1 to 2 days by paper disk diffusion method. Particulars: dose 80.0 µg, time 1-2 day. The data set is classed as functional, organism-based.
For data set [5], the system named is Serratia entomophila. Nature of the data set: Antimicrobial activity against Serratia entomophila DSM 12358 assessed as zone of inhibition at 80 ug measured after 1 to 2 days by paper disk diffusion method. The data set is classed as functional, organism-based. As to conditions: dose 80.0 µg, time 1-2 day.
The subject of data set [6] is Saccharomyces cerevisiae. Nature of the data set: Antimicrobial activity against Saccharomyces cerevisiae assessed as zone of inhibition at 80 ug measured after 1 to 2 days by paper disk diffusion method. The data set is classed as functional, organism-based. Particulars: dose 80.0 µg, time 1-2 day.
Data set [7] relates to Staphylococcus aureus. The data set can be described thus: Potentiation of imipenem-induced antimicrobial activity against Staphylococcus aureus at 10 ug measured after 18 to 24 hrs in presence of 0.5 ug/ml imipenem by paper disk diffusion method. Particulars: dose 10.0 µg, time 18-24 hrs. The data set is classed as functional, organism-based.
The subject of data set [8] is Coxsackievirus B3. Nature of the data set: Antiviral activity against Coxsackievirus B3 infected in human Hep-2 cells assessed as inhibition of virus-induced cytopathic effect measured after 48 hrs by MTT assay relative to control. The data set is classed as functional. (Cytopathic effects are the visible damage that an infection or toxin causes in cultured cells.)

Data set [9] has as its system Coxsackievirus B3. Nature of the data set: Antiviral activity against Coxsackievirus B3 infected in human Hep-2 cells assessed as inhibition of virus-induced cytopathic effect measured after 48 hrs by MTT assay. The data set is classed as functional, organism-based. Particulars: Enterovirus B, HEp-2, 48 h.
Data set [10] in a line: Cytotoxicity against Coxsackievirus B3 infected human Hep-2 cells assessed as reduction in cell viability measured after 48 hrs by MTT assay. The data set is classed as toxicity, cell-based. Particulars: Coxsackievirus B3 infected Hep-2 cells. In general terms: Tetrazolium dyes change colour on reduction, which living cells bring about.
Data set [11] can be described thus: Selectivity index, ratio of CC50 for human Hep-2 cells to EC50 for antiviral activity against Coxsackievirus B3 infected in human Hep-2 cells. The data set is classed as toxicity, cell-based. Particulars: read-out: Ratio CC50/EC50.
The test system of data set [12] is Coxsackievirus B3. The data set can be described thus: Antiviral activity against Coxsackievirus B3 infected in human Hep-2 cells assessed as protection against virus-induced pathological changes measured after 48 hrs by microscopic analysis. The data set is classed as functional, organism-based.
For data set [13], the system named is Coxsackievirus B3. Nature of the data set: Antiviral activity against Coxsackievirus B3 infected in human Hep-2 cells assessed as protection against virus-induced apoptosis measured after 48 hrs by microscopic analysis. The data set is classed as functional, organism-based.
The subject of data set [14] is Staphylococcus aureus. The data set can be described thus: Antimicrobial activity against Staphylococcus aureus assessed as diameter of zone of inhibition at 0.5 ug/ml measured after 18 to 24 hrs by paper disk diffusion method. The data set is classed as functional. Particulars: time 18-24 hrs, read-out: DIZ.
The subject of data set [15] is Staphylococcus aureus. Nature of the data set: Antimicrobial activity against Staphylococcus aureus assessed as diameter of zone of inhibition at 0.25 ug/ml measured after 18 to 24 hrs by paper disk diffusion method. The data set is classed as functional, organism-based. As to conditions: dose 0.25 µg/ml, time 18-24 hrs.
For data set [16], the system named is Coxsackievirus B3. Nature of the data set: Antiviral activity against Coxsackievirus B3 infected in human Hep-2 cells assessed as log reduction in viral progeny yield measured after 48 hrs relative to control. The data set is classed as functional.

As for `C=C[C@](C)(O)[C@H]1C[C@H]2C(=C)[C@@H]3C[C@H]4C(C)(C)CCC[C@]24[C@H]1O3`, the zone of inhibition at 80 µg/disc in data set [1] was approximately 1 mm. For the same compound, the “inhibition zone (IZ)” value in data set [2], in [3], in [4], in [5] and in data set [6] was “inactive” in each case. Further, the outcome in data set [7] was inactive. For the same compound, in data set [8], the Imax turned out to be 85.3%. Further, in data set [9], the half-maximal effective concentration (EC50) amounted to 42.7 µM. The cytotoxic concentration (CC50) at 48 h in data set [10] came out at 161 µM. Also, the selectivity ratio in data set [11] is 3.8. Besides, the outcome in [12] and in data set [13] was Active.

`C[C@@H](O)[C@H]1C(=O)N2C(C(=O)O)=C(SCCNC=N)C[C@H]12` [IMIPENEM ANHYDROUS]: in data set [14], the zone of inhibition at 0.5 µg/mL is approximately 2 mm. The “diameter of the inhibition zone (DIZ)” value in data set [15] is “inactive”.

As for `NC(=O)c1ncn([C@@H]2O[C@H](CO)[C@@H](O)[C@H]2O)n1` [RIBAVIRIN], in [9], the concentration for a half-maximal effect (EC50) came out at 114 µM. In addition, in [10], the CC50 at 48 h was 386 µM. The selectivity ratio in data set [11] was found to be 3.4.

With `C=C[C@@](C)(O)[C@@H]1C[C@H]2C(=C)[C@@H]3C[C@H]4C(C)(C)CCC[C@]24[C@H]1O3`, the zone of inhibition at 80 µg/disc in data set [1] is approximately 1 mm. For the same compound, the “inhibition zone (IZ)” value in [2], in data set [3], in data set [4], in data set [5] and in data set [6] was “inactive” throughout. For the same compound, in data set [7], the result was inactive. Further, in data set [8], the Imax is 90.1%. Further, the EC50 in [9] stood at 76.8 µM. The CC50 at 48 h in data set [10] was determined as 160 µM. In addition, the selectivity ratio in data set [11] is 2. The result in [12] and in data set [13] was Active.

Take `C=C[C@@](C)(O)[C@H]1C[C@H]2C(=C)[C@@H]3C[C@H]4C(C)(C)CCC[C@]24[C@H]1O3`: in data set [1], the zone of inhibition at 80 µg/disc is approximately 1 mm. Moreover, the “inhibition zone (IZ)” value in [2], in data set [3], in [4], in data set [5] and in [6] was “inactive” in each case. In [7], the result was inactive. In data set [8], the Imax came out at 91.2%. Besides, in data set [9], the concentration giving a half-maximal response (EC50) was 27.2 µM. Also, the CC50 at 48 h in [10] worked out at 168 µM. Also, the selectivity ratio in data set [11] was 6.2. For the same compound, the result in [12] and in data set [13] was Active. Further, the “log(activity)” value in data set [16] is recorded as approximately 4.5.
